Assay [1] concerns RD cells. Briefly: FITC-oligonucleotide uptake assay (nuclear fluorescence score). It is filed as cell-based, human. Set-up: key: 0: No nuclear fluorescence; 1: up to 20% fluorescent nuclei; 2: up to 40% fluorescent nuclei; 3: up to 60% fluorescent nuclei; 4: up to 80% fluorescent nuclei; 5: up to 100% fluorescent nuclei. Particulars: lipid:oligomer 9:1 or 6:1 by weight, 4-6 h.
The test system of assay [2] is SNB-19 cells. Described as above. More on the design: key: 0: No nuclear fluorescence; 1: up to 20% fluorescent nuclei; 2: up to 40% fluorescent nuclei; 3: up to 60% fluorescent nuclei; 4: up to 80% fluorescent nuclei; 5: up to 100% fluorescent nuclei. It is filed as cell-based, human. The note with it: SNB19, lipid:oligomer 9:1 or 6:1 by weight, 4-6 h.
Assay [3] concerns COS-7 cells. Nature of the assay: Transient transfection of CAT plasmid pG1035 with cationic lipids, CAT activity in lysate. It is filed as cell-based, African green monkey. The note with it: for Mean (transient transfection efficiency; CAT activity normalized to total protein): CAT plasmid pG1035 2 μg/mL, lipid 18 μg/mL (9 to 1 lipid to DNA), triplicate; for REL (transient transfection efficiency relative to best lipid in the cell line): CAT plasmid pG1035, 9 to 1 lipid to DNA. How it is done:
(§1) Cell lines were plated at 1.5×10^5 cells/well in a 12 well plate format on the day before tranfection. […] This small quantity of ethanol was confirmed to have no adverse effect on any of the cell lines. […] Cell lysates were prepared by rinsing twice in PBS and then were treated with 0.5 mL of 1× Reporter Lysis Buffer (Promega, Madison, Wis.). The lysed cells were pipetted into 1.5 mL tubes and frozen in CO2/EtOH once and thawed. The crude lysate was then clarified by microcentrifugation at 14,000 rpm for 10 minutes to pellet cell debris. The clear supernatant was recovered and assayed directly or stored at -20° C. for assay later. The cell lysates were then assayed for CAT activity and the total protein concentration was determined as described below in Example 7. The CAT activity was normalized to total protein and plotted as shown. This assay was performed generally as follows. First, the following reaction mixture was prepared for each sample: […] Louis, Mo.), 4 mL ^14C-chloramphenicol, 50 nCi/mL (Dupont, Boston, Mass.), and 5 mL mg/mL n-butyryl coenzyme A (Pharmacia, Piscataway, N.J.). […] The original stock CAT was at 7000 Units/mL. […] Approximately […] of reaction mixture was then added to each sample tube, which was then typically incubated for approximately 1 hour in a 37° C. oven. The reaction was terminated by adding […] pristane:mixed xylenes (2:1) (Sigma, St. Louis, Mo.) to each tube. The tubes were then vortexed for 2 minutes and spun for 5 minutes. Approximately […] of the upper phase was transferred to a scintillation vial with 5 mL Scintiverse (Fisher, Pittsburgh, Pa.). The sample was then counted in a scintillation counter (Packard). The plasmid pG1035 was used for transient transfections of COS-7 (ATCC # CRL-1651), SNB-19, C8161 and RD (ATCC # CCL-136) cells. pG1035 consists of a modified CAT (choramphenicol acetyl transferase) gene (named […]) inserted into the eukaryotic vector pRc/CMV (Invitrogen, San Diego, Calif.). […] created by inserting an artificial intron into the wild type CAT gene sequence in a plasmid named pG1036 (also based on pRc/CMV) using the polymerase chain reaction. […] Concentration curve standards were prepared using 6 μL of […] BSA stock solutions and 300 mL of the Coomassie reagent. The assay samples were allowed to sit for approximately 30 minutes before reading the optical absorbance at 570 nm in a microplate reader (Molecular Probes). The cells were assayed for CAT protein as described above.

For assay [4], the system named is C8161 cells. Nature of the assay: FITC-oligonucleotide uptake assay (nuclear fluorescence score). It is filed as cell-based, human. Set-up: key: 0: No nuclear fluorescence; 1: up to 20% fluorescent nuclei; 2: up to 40% fluorescent nuclei; 3: up to 60% fluorescent nuclei; 4: up to 80% fluorescent nuclei; 5: up to 100% fluorescent nuclei. Particulars: lipid:oligomer 9:1 or 6:1 by weight, 4-6 h.

Assay [5] relates to RD cells. Nature of the assay: Transient transfection of CAT plasmid pG1035 with cationic lipids, CAT activity in lysate. It is filed as cell-based, human. The note with it: for Mean (transient transfection efficiency; CAT activity normalized to total protein): CAT plasmid pG1035 2 μg/mL, lipid 18 μg/mL (9 to 1 lipid to DNA), triplicate; for REL (transient transfection efficiency relative to best lipid in the cell line): CAT plasmid pG1035, 9 to 1 lipid to DNA. How it is done:
as §1

Assay [6] deals with SNB-19 cells. The description is as above. The note with it: for Mean (transient transfection efficiency; CAT activity normalized to total protein): CAT plasmid pG1035 2 μg/mL, lipid 18 μg/mL (9 to 1 lipid to DNA), triplicate; for REL (transient transfection efficiency relative to best lipid in the cell line): CAT plasmid pG1035, 9 to 1 lipid to DNA. It is filed as cell-based, human. How it is done:
as §1

In assay [7] the test system is C8161 cells. The assay is described as above. It is filed as cell-based, human. The note with it: for Mean (transient transfection efficiency; CAT activity normalized to total protein): CAT plasmid pG1035 2 μg/mL, lipid 18 μg/mL (9 to 1 lipid to DNA), triplicate; for REL (transient transfection efficiency relative to best lipid in the cell line): CAT plasmid pG1035, 9 to 1 lipid to DNA. How it is done:
as §1

For assay [8], the system named is COS-7 cells. Nature of the assay: FITC-oligonucleotide uptake assay (nuclear fluorescence score). It is filed as cell-based, African green monkey. More on the design: key: 0: No nuclear fluorescence; 1: up to 20% fluorescent nuclei; 2: up to 40% fluorescent nuclei; 3: up to 60% fluorescent nuclei; 4: up to 80% fluorescent nuclei; 5: up to 100% fluorescent nuclei. Particulars: COS7, lipid:oligomer 9:1 or 6:1 by weight, 4-6 h.

[9] abbreviates: FITC oligomer 3498-PS (phosphorothioate) 0.25 micromolar.
Setting [10] is: FITC oligomer 3498 Chimera 0.25 micromolar.
The mark [11] stands for this setting: FITC oligomer 3793-2 alternating (methylphosphonate/diester, 2'-O-methyl) 0.25 micromolar.

Turning to `CCCCCCCCCCCCCCCCCC(CCCCCCCCCCCCCCCCC)NC(=O)CNC(=O)CNC(=O)[C@H](CCCNCCCN)NCCCN.O=C(O)C(F)(F)F.O=C(O)C(F)(F)F.O=C(O)C(F)(F)F.O=C(O)C(F)(F)F` [Compound 1-10, N^2,N^5-Bis(3-aminopropyl)-L-ornithylglycyl-N-(1-heptadecyloctadecyl)glycinamide, Tetrahydrotrifluoroacetate], the “Nuclear delivery of oligonucleotide (uptake score)” value (“Nuclear delivery of oligonucleotide” below) with RD cells [1] (setting [9]) is 5 (up to 100% fluorescent nuclei); with RD cells [1] (setting [10]) it was 4 (up to 80% fluorescent nuclei); in the assay with RD cells [1] (setting [11]) it was 0; with SNB-19 cells [2] (setting [9]), 4 (up to 80% fluorescent nuclei); with SNB-19 cells [2] (setting [10]), 4 (up to 80% fluorescent nuclei); in the assay with SNB-19 cells [2] (setting [11]), 0. Further, the “Nuclear delivery of oligonucleotide” value is recorded as 5 (up to 100% fluorescent nuclei) with C8161 cells [4] (setting [9]); 3 (up to 60% fluorescent nuclei) with C8161 cells [4] (setting [10]); 0 with C8161 cells [4] (setting [11]); 4 (up to 80% fluorescent nuclei) in the assay on COS-7 cells [8] (setting [9]); 3 (up to 60% fluorescent nuclei) with COS-7 cells [8] (setting [10]); 0 with COS-7 cells [8] (setting [11]). In addition, the “Mean (transient transfection efficiency; CAT activity normalized to total protein)” value in the assay with COS-7 cells [3] was found to be 148040; in the assay with RD cells [5], 124232; in the assay with SNB-19 cells [6], 166179; in the assay with C8161 cells [7], 159578. In addition, the “REL (transient transfection efficiency relative to best lipid in the cell line)” value with COS-7 cells [3] turned out to be 0.87; in the assay on RD cells [5], 0.7; with SNB-19 cells [6] it was 0.88; in the assay with C8161 cells [7] it was 0.8.
In the case of `CCCCCCCCCCCCCCCCCCN(CCCCCCCCCCCCCCCCCC)C(=O)CC[C@H](NC(=O)[C@H](CCCNCCCN)NCCCN)C(=O)O.Cl.Cl.Cl.Cl` [Compound 2-5, N^2-[N^2,N^5-Bis(3-aminopropyl)-L-ornithyl]-N,N-dioctadecyl-L-glutamine, tetrahydrochloride], the “Nuclear delivery of oligonucleotide” value in the assay with RD cells [1] (setting [9]) was 3 (up to 60% fluorescent nuclei); in the assay with RD cells [1] (setting [10]), 4 (up to 80% fluorescent nuclei); with RD cells [1] (setting [11]) it was 4 (up to 80% fluorescent nuclei); in the assay on SNB-19 cells [2] (setting [9]) it was 3 (up to 60% fluorescent nuclei); in the assay with SNB-19 cells [2] (setting [10]), 3 (up to 60% fluorescent nuclei); in the assay with SNB-19 cells [2] (setting [11]), 3 (up to 60% fluorescent nuclei). For the same compound, the “Nuclear delivery of oligonucleotide” value with C8161 cells [4] (setting [9]) is on record as 3 (up to 60% fluorescent nuclei); in the assay on C8161 cells [4] (setting [10]), 4 (up to 80% fluorescent nuclei); in the assay on C8161 cells [4] (setting [11]) it was 3 (up to 60% fluorescent nuclei); with COS-7 cells [8] (setting [9]), 2 (up to 40% fluorescent nuclei); in the assay on COS-7 cells [8] (setting [10]), 2 (up to 40% fluorescent nuclei); in the assay on COS-7 cells [8] (setting [11]), 1 (up to 20% fluorescent nuclei). Also, the “Mean (transient transfection efficiency; CAT activity normalized to total protein)” value in the assay on COS-7 cells [3] came to 55598; with RD cells [5], 73921; in the assay on SNB-19 cells [6], 103280; in the assay on C8161 cells [7] it was 137710. Further, the “REL (transient transfection efficiency relative to best lipid in the cell line)” value in the assay on COS-7 cells [3] amounted to 0.33; in the assay with RD cells [5], 0.41; in the assay on SNB-19 cells [6], 0.55; in the assay with C8161 cells [7], 0.69.

Source of the values: patent US6638529B2, “Amide-based cationic lipids” (Genta Incorporated, priority 1995, dated 2003).
